Test [1] has as its system primary preadipocytes from IGFBP-2−/− mice. The experiment in a line: Differentiation of primary preadipocytes (immunoblot of adiponectin, aP2, PPARγ; Oil Red O staining). The class given is cell-based, mouse. As to conditions: for effect on differentiation marker expression / preadipocyte differentiation (in words): peptides 6 μg/ml, IGFBP-2 proteins 3 μg/ml, IGF-I 100 ng/ml, in differentiation medium; for % suppression of adiponectin: mean±SE, N=3; for relative potency as inhibitor of adipogenesis / preadipocyte differentiation (in words): comparison between peptides and proteins, immunoblot and Oil Red O. The method, then:
Primary preadipocytes were isolated from epididymal fat pads of 6 week old IGFBP-2^−/− mice. The cells were cultured using a previously described method (Boney, C M et al., 1994). The fat pads were weighed and the tissue was digested with an equal volume (W/V) of collagenase type A (Roche Applied Science, Indianapolis, Ind.) in HEPES buffer (0.1M and 1.5% BSA) for 45 min at 37° C. Following complete digestion, the preadipocytes were separated from the stromal vascular cells by centrifugation at 500×g for 5 min. The pelleted cells were washed with DMEM containing 30 mM glucose (Gibco, Grand Island, N.Y.) and passed through a 100 μm mesh filter (BD Biosciences, Bedford, Mass.). The cells were then plated in 6-well plates (Falcon Corp., Franklin Lakes, N.J.) at a density of 1.2-1.5×10^4 cells/ml in DMEM containing 30 mM glucose supplemented with penicillin (100 U/ml), streptomycin (100 μg/ml), and 10% fetal bovine serum hereafter referred to as standard medium. The cultures had the medium changed every 2 days until they reached confluency. Two day post-confluent cells were then exposed to differentiation medium (serum free DMEM containing 0.5 mM IBMX, 1 μM dexamethasone, and 5 μg/mL insulin) and incubated for 2 days. Experimental treatments that were added to this medium included either wild type IGFBP-2 (3 μg/ml), HBD1 peptide (6 μg/ml), HBD1 control peptide (6 μg/ml), HBD2 peptide (6 μg/ml), HBD2 control peptide (6 μg/ml), HBD1 mutant IGFBP-2 (3 μg/ml) or the HBD2 mutant IGFBP-2 (3 μg/ml). Cultures were maintained for two additional days in the standard medium supplemented with 5 μg/ml insulin. Thereafter, the cultures were kept in the fresh standard medium without insulin for additional two days.
After treatment, the cells were rinsed with PBS for two times and fixed with 10% formalin for 30 min at room temperature. After rinsing with distilled water for twice, 100% propylene glycol (Poly Scientific, Bay Shore, N.Y.) was added and incubated for 5 min. Before adding Oil Red O solution (Poly Scientific, Bay Shore, N.Y.), propylene glycol was removed. The cultures were incubated for 10 min at 60° C. Removing Oil Red O solution, the cultures were incubated with 80% propylene glycol for 5 min, After incubation, the cultures were rinsed with tap water twice. Images were captured using an Olympus IX81 inverted microscope.
Differentiated adipocytes were lysed in ice-cold lysis buffer (Xi et al., 2008). After centrifugation at 14,000×g for 10 min, solubilized proteins were quantified by the Bradford method (Thermo Scientific, Rockford, Ill.). Equal protein amounts of lysates were loaded onto a SDS-polyacrylamide gel and the proteins were separated, then transferred to an Immobilon filter and visualized by immunoblotting using the appropriate antibody. The primary antibody dilutions that were used were 1:1000 for the anti-adiponectin antibody (Affinity BioReagents, Golden, Colo.), 1:500 for the anti-PPARγ antibody (Cell Signaling Technology Inc., Beverly, Mass.), 1:2000 for the anti-apt antibody (ProSci Inc., Poway, Calif.) and 1:5000 for the anti-β-actin antibody (Sigma Chemical Company, St. Louis, Mo.). The immune complexes were visualized using enhanced chemiluminescence (Thermo Fischer Scientific, Rockford, Ill.).
Preadipocytes were prepared from mice and grown in culture as described herein. The respective mouse and human peptides were added to cells and the cells were lysed and the lysates were run on SDS gels as described. Immunoblotting for adiponectin was carried as described. Three concentrations of each peptide, 0.7, 2.0 and 6.0 μg/ml, were compared. The results were expressed as % suppression mean±SE(N=3) and were as follows.
Cell culture of primary preadipocytes. Preadipocytes were isolated from epididymal fat pads of IGFBP-2^−/− mice. The cultures had the medium changed every 2 days until they reached confluency. […]
(In general: A western blot detects proteins with antibodies after separation by electrophoresis.)

Test [2] relates to ovariectomized C57B6 normal mice (IGFBP-2 +/+). The test is described as follows: Body composition MRI analysis in ovariectomized genetically normal mice. The test is classed as in vivo, mouse. As to conditions: for Fat / Body weight: 2.5 mg/kg. The method, then:
Experiments were conducted in which the HBD-2 peptide was administered to genetically normal, ovariectomized mice to determine if it would induce fat loss. The purpose of this experiment was to determine if the peptide could alter fat mass in ovariectomized mice. Estrogen deficient mice are known to gain fat mass following removal of the ovaries. Since the peptide had not been tested in an animal model that had not been genetically manipulated and since it had not been tested in a condition wherein fat mass had been acquired previously to determine if it could reduce pre-existing fat mass this experiment was undertaken. The experimental design was as follows.
(§1) There were 8 mice in each treatment group. C57B6 normal mice underwent ovaryectomy at age 8 weeks. They were then maintained on a normal Chow diet (6% fat) for three weeks. At that time they were treated with 2.5 mg/kg of the active peptide injected subcutaneously two days per week for four weeks. The peptide is the pegylated HBD-2 peptide described herein,
(§2) A second treatment group that had also undergone ovariectomy was treated with the identical concentration of a control peptide that contained the same amino acids but in a scrambled order. A third group underwent sham surgery wherein an incision was made and then closed and the ovaries were not removed. For comparison the response of mice that had had the IGF BP-2 gene deleted were treated in the same manner.
(§3) Eight mice underwent and were treated with the active peptide for four weeks as described for the normal animals. Eight additional mice received the control peptide and eight mice received the sham procedure. The animals were weighed weekly. After 4 weeks they underwent MRI analysis to determine body composition. Both lean mass and fat mass were quantified and the percent fat as a percent total body weight was determined mathematically.

Test [3] relates to ovariectomized IGFBP-2 −/− mice. The experiment in a line: Body composition MRI analysis in ovariectomized IGFBP-2 knockout mice. The test is classed as in vivo, mouse. As to conditions: IGFBP-2 −/− OVX mice, 2.5 mg/kg sc two days per week for four weeks; for Fat: 2.5 mg/kg. The method, then:
as §1, §2, §3

In test [4] the test system is IGFBP-2−/− mice. The experiment in a line: Body composition (fat and lean mass) by EchoMRI at weeks 0 and 12. The class given is in vivo, mouse. As to conditions: weeks 0 to 12; pegylated peptide 50 μg IP 3 times/week; mean±SE. The protocol:
(§4) Body fat and lean muscle mass was measured at weeks 0 and 12 of treatment by magnetic resonance imaging analysis (EchoMRI-100, Echo Medical Systems, Houston, Tex.), a technique that measures fat mass and lean mass in unanesthetized animals (Kelly S A, et. al., 2010). After completion of 12 weeks of treatment, the mice were sacrificed. Blood was collected by cardiac puncture and allowed to sit for 4 hours before centrifuging at 3500 rpm×15 min. The serum was aspirated and stored at −20° C. until analysis. Abdominal inguinal and visceral fat pads were carefully dissected from each animal according to defined anatomical landmarks. All subcutaneous fat between the lower part of the rib cage and the upper thigh was considered abdominal subcutaneous inguinal fat, whereas all fat found along the mesentery starting at the lesser curvature of the stomach and ending at the sigmoid colon was considered visceral fat. Fat depots were blotted dry prior to weighing. The right inguinal fat pad was dissected separately and the triglyceride content of this tissue was determined by a colorimetric analysis (Pointe Scientific, Canton, Mich.), as previously described (Dann H, Kimura S 1992). Serum adiponectin and leptin were measured by ELISA following manufacturer's instructions (Millipore, Billerica, Mass.).
(§5) Body composition and serum adipokine measurement. Body fat and lean mass were measured at weeks 0 and 12 of treatment by magnetic resonance imaging analysis (EchoMRI-100, Echo Medical Systems, Houston, Tex.), using unanesthetized animals. After 12 weeks of treatment, the mice were sacrificed and blood was collected by cardiac puncture and centrifuged at 3500 rpm×15 min. The serum was stored at −20° C. Abdominal inguinal and visceral fat pads were dissected from each animal according to defined anatomical landmarks. Subcutaneous fat between the rib cage and the upper thigh was termed subcutaneous inguinal fat, whereas all fat from the lesser curvature of the stomach to the sigmoid colon was termed visceral fat. Fat depots were blotted dry prior to weighing. The right inguinal fat pad was dissected separately and the triglyceride content of this tissue was determined by a calorimetric analysis (Pointe Scientific, Canton, Mich. Serum adiponectin and leptin were measured by ELISA following manufacturer's instructions (Millipore, Billerica, Mass.).

Test [5] deals with IGFBP-2−/− mice. The experiment in a line: Inguinal and visceral fat pad, liver and heart weights at sacrifice. The class given is in vivo, mouse. As to conditions: after 12 weeks; pegylated peptide 50 μg IP 3 times/week; mean±SE. The protocol:
as §4, §5

The mark [6] stands for this setting: IGFBP-2 +/+ OVX mice, 2.5 mg/kg sc two days per week for four weeks, MRI.

“Also recorded” adds a separate entry of the source. No end group written: not given here. mPEG‑maleimide = methoxy-PEG maleimide (couples to the cysteine thiol)

For the molecule “RKGFYKRKQCKPSRGRKR [HBD2 control peptide, reference compound]”, in test [1], the “effect on differentiation marker expression / preadipocyte differentiation (in words)” value is “did not affect their expression; also recorded: did not alter their expression”.
Same read-out and setting: as for “IGF-I: insulin-like growth factor-I added at 100 ng/ml to differentiation medium [reference compound]”, the entry is “no additional effect on cell differentiation”; as for “CKPLRLSKEEHPLK [HBD1 control peptide, scrambled HBD1 peptide, reference compound]”, “had no effect”.
On to “Peg HBD2: HBD2 peptide with added cysteine (CKHGLYNLKQCKMSLNGQR), pegylated with methoxy PEG maleimide (C(mPEG‑maleimide)KHGLYNLKQCKMSLNGQR)”, for which the Fat % in test [2] (setting [6]) stood at 19.42 ± 1.1%; in test [3] (MRI), 18.75 ± 1.0%. The Lean in test [2] (setting [6]) is 17.40 ± 0.3 g; in test [3] (MRI), 16.97 ± 0.4 g. For the same molecule, the Total is 21.65 ± 0.6 g in test [2] (setting [6]) and 20.90 ± 0.8 g in test [3] (MRI). The Fat in test [2] (IGFBP-2 +/+ OVX mice, 2.5 mg/kg sc two days per week for four weeks, MRI, listed as HBD) is 4.0 ± 0.4 g; in test [2] (IGFBP-2 +/+ OVX mice, 2.5 mg/kg sc two days per week for four weeks, MRI, listed as active peptide) it was 4.0 g; in test [3] (MRI), 3.85 g; in test [3] (MRI, listed as HBD(pept)), 3.85 ± 0.4 g. Also, the Body weight in test [2] (IGFBP-2 +/+ OVX mice, 2.5 mg/kg sc two days per week for four weeks, listed as HBD) is on record as 23.0 ± 0.8 g; in test [2] (IGFBP-2 +/+ OVX mice, 2.5 mg/kg sc two days per week for four weeks, listed as active peptide), 23.0 g; in test [3] it was 21.95 ± 0.8 g. Besides, the “body weight and total fat mass (in words)” value in test [2] (OVX mice, after four weeks of treatment) is “significantly decreased”. Also, the Fat mass increase in test [4] stood at 0.58 ± 0.12 g. The molecule further came in with a Lean mass increase in test [4] of 3.10 ± 0.57 g. This molecule also came in with an Inguinal fat in test [5] of 0.23 ± 0.02 g. Besides, the Visceral fat in test [5] is recorded as 0.25 ± 0.02 g.
For “KHGRYNLKQCKMSLNGQR [Mouse, mouse IGFBP-2 HBD2 peptide]”, the “% suppression of adiponectin” value in test [1] (0.7 μg/ml peptide) was found to be 51.2 ± 8.1%; in test [1] (2.0 μg/ml peptide), 85.6 ± 11.4%; in test [1] (6.0 μg/ml peptide), 95.5 ± 9.9%. Further, in test [1], the “relative potency as inhibitor of adipogenesis / preadipocyte differentiation (in words)” value was “equipotent”.

B1: native IGFBP-2: native (wild type) insulin-like growth factor binding protein-2; FIG. 2 legend says wild type bovine IGFBP-2 (protein, UniProt P13384 34-317, looked up)
Insulin-like growth …: EVLFRCPPCTPESLAACKPPPGAAAGPAGDARVPCELVREPGCGCCSVCARLEGERCGVYTPRCGQGLRCYPNPGSELPLRALVHGEGTCEKHGDAEYSASPEQVADNGEEHSEGGLVENHVDGNVNLMGGGGGAGRKPLKSGMKELAVFREKVTEQHRQMGKGGKHHLGLEEPKKLRPPPARTPCQQELDQVLERISTMRLPDERGPLEHLYSLHIPNCDKHGLYNLKQCKMSLNGQRGECWCVNPNTGKLIQGAPTIRGDPECHLFYNEQQGARGVHTQRMQ
As to B1, in test [1], the “relative potency as inhibitor of adipogenesis / preadipocyte differentiation (in words)” value is on record as “most potent inhibitors of adipogenesis” and the “effect on differentiation marker expression / preadipocyte differentiation (in words)” value is “inhibited preadipocyte differentiation into mature adipocytes”.

The record behind these values is US20160039897A1, “COMPOUNDS AND METHODS FOR TREATING OBESITY AND CONTROLLING WEIGHT” (THE UNIVERSITY OF NORTH CAROLINA AT CHAPEL HILL, priority 2013, published 2016).
